The numbers were not newly measured in patent US8013163B2 (Astex Therapeutics Limited, priority 2005, dated 2011), which cites them from elsewhere.

For the series, the system named is malignant cells from B-cell chronic lymphocytic leukemia (B-CLL). The settings on record: in vitro; cited from earlier work.

`CN1CC[C@H](c2c(O)cc(O)c3c(=O)cc(-c4ccccc4Cl)oc23)[C@H](O)C1` [Flavopiridol]: the induction of apoptosis result is listed as “induce in vitro apoptosis”. As to `CC[C@H](CO)Nc1nc(NCc2ccccc2)c2ncn(C(C)C)c2n1` [CYC 202], the induction of apoptosis result is “induce in vitro apoptosis”.
